For experiment [1] the following is noted: cited from earlier work.
Experiment [2] is described as follows: Binding affinity (log Ka) of guests for the macrocyclic receptor cucurbit[7]uril. The settings on record: PtC as indicator for CB7 (CB7⊃PtC inclusion complex), result in words.
Where [3] appears, read: binding affinity for CB7 (host-guest complex).

These results are taken from patent EP4467974A1, “NOVEL CHEMOSENSORS AND THEIR USE IN ELECTROCHEMICAL DETECTION METHODS” (Karlsruher Institut für Technologie, priority 2023, dated 2024).

Each structure is given as a SMILES string. Read-outs that look alike come from different tables or passages of the source.

On to `NCCc1ccc(O)c(O)c1` [dopamine], for which, in experiment [1] (setting [3]), the “log Ka” value was 5.0.

For the compound `CC(=O)O[C@H]1C[C@@H]2CC[C@@H]3[C@H](CC[C@@]4(C)[C@H]3C[C@H]([N+]3(C)CCCCC3)[C@@H]4OC(C)=O)[C@@]2(C)C[C@@H]1[N+]1(C)CCCCC1` [pancuronium bromide], the “log Ka” value in experiment [1] is reported as 10.23.

For `OCCOCCOCCn1cc2[n+](n1)[Pt-2]([Cl])([Cl])[n+]1ccccc1-2` [PtC], the binding affinity result in experiment [2] was “intermediate”.

In the case of `NCCc1c[nH]c2ccc(O)cc12` [serotonin], the “log Ka” value in experiment [1] (setting [3]) is 4.8.
